Laboratory results published in article PMC9329436, “Optimization of the 4-anilinoquin(az)oline scaffold as epidermal growth factor receptor (EGFR) inhibitors for chordoma utilizing a toxicology profiling assay platform” (Scientific Reports, 2022).
Where “and” joins values, the source holds several entries; their conditions need not be identical. Equal values may be shown once.

Tests used:
U-CH1 chordoma cell line = assay: Cell viability assay (alamarBlue, 72 h), U-CH1; assay type: cell-based, human
Method: (§1) Chordoma cell lines were cultured as described previously[10],[12],[33],[34]. Briefly, U-CH1 and U-CH2 cell lines were cultured in 4:1 IMDM:RPMI medium supplemented with 10% fetal bovine serum (FBS) and 1% penicillin/streptomycin in gel-coated flasks. […] CH22, UM-Chor1, U-CH12, and U-CH7 cell lines were cultured in RPMI medium supplemented with 10% FBS and 1% penicillin/streptomycin. The cell lines all undergo regular mycoplasma screening.
(§2) Cells were seeded in 384 well plates and were treated with test compound in quadruplicate 24 h after plating. Cell viability was assessed at 72 h using alamarBlue (ThermoFisher, USA). […] IC50 values were determined by four-parameter nonlinear regression analyses using GraphPad Prism™ version 8 software (San Diego, CA).

[1] = system: CH22 patient-derived chordoma cell line; assay: Cell viability assay (alamarBlue, 72 h), CH22; assay type: cell-based, human; settings: Homo sapiens, n = 4, 72 h
Method: as §1, §2

[2] = system: U-CH7 patient-derived chordoma cell line; assay: Cell viability assay (alamarBlue, 72 h), U-CH7; assay type: cell-based, human; settings: Homo sapiens, n = 4, 72 h
Method: as §1, §2

U-CH2 chordoma cell line = assay: Cell viability assay (alamarBlue, 72 h), U-CH2; assay type: cell-based, human
Method: as §1, §2

EGFR = EGFR (Homo sapiens, UniProt P00533); assay: ProQinase in-cell EGFR assay (EGFR phosphorylation in A431 cells); assay type: cell-based; parameters: This cell line endogenously expresses a high level of EGFR; endogenous in cells; host or cells: A431; settings: ProQinase in-cell EGFR assay, A431 cells, n = 1
Chain of EGFR (P00533 25-1210): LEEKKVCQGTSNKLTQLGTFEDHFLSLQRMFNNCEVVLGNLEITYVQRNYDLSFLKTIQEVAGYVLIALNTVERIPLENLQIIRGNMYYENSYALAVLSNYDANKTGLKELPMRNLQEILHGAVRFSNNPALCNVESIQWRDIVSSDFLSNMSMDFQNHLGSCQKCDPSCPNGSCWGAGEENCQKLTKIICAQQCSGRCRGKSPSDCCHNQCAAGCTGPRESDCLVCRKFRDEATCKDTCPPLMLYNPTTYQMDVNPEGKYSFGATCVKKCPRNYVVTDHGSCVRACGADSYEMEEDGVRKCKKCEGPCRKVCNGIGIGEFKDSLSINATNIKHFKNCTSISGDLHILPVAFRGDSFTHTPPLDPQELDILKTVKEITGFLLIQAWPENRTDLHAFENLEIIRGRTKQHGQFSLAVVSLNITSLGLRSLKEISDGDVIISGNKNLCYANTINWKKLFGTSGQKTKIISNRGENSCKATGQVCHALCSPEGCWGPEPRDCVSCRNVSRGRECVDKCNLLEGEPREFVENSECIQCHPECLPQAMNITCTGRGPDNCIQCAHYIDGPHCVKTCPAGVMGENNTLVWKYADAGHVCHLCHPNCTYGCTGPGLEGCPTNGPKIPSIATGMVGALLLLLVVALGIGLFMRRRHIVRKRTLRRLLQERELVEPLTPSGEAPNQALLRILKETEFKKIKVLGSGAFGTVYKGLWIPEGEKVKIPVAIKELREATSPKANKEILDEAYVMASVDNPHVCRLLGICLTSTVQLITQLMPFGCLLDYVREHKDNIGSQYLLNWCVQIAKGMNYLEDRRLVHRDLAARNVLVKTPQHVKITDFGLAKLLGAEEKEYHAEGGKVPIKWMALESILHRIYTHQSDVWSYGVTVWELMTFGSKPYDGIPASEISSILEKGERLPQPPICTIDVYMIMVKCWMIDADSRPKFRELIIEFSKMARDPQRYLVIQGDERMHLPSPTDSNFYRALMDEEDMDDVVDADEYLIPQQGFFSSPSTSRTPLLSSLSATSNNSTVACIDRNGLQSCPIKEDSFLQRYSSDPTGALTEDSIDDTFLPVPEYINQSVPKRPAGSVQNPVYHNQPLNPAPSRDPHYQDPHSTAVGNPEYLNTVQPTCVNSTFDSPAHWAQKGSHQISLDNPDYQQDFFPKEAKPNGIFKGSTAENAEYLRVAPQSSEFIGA
Description: In addition, we ran an EGFR in-cell target engagement assay, measuring in-cell EGFR phosphorylation, using the human epidermoid carcinoma cell line A431. This cell line endogenously expresses a high level of EGFR, and stimulation of these cells with human epidermal growth factor (EGF) results in receptor tyrosine autophosphorylation.

[3] = system: U-CH12 patient-derived chordoma cell line; assay: Cell viability assay (alamarBlue, 72 h), U-CH12; assay type: cell-based, human; settings: Homo sapiens, n = 4, 72 h
Method: as §1, §2

HL60 cells = assay: AsedaSciences SYSTEMETRIC Cell Health Screen (flow cytometry toxicity profiling); settings: for CC: Cell Cycle score / CM: Cell morphology score / CMI: Cell membrane integrity score / GSH: Glutathione score / MMP: Mitochondrial membrane depolarization score / NMI1: Nuclear membrane integrity 1 score / NMI2: Nuclear membrane integrity 2 score / ROS: Reactive superoxide species score / CHI: Cell Health Index: HL60, 4 h, 5 nM–100 µM; for CC: Cell Cycle score / CM: Cell morphology score / CMI: Cell membrane integrity score / GSH: Glutathione score / MMP: Mitochondrial membrane depolarization score / NMI1: Nuclear membrane integrity 1 score / NMI2: Nuclear membrane integrity 2 score / ROS: Reactive superoxide species score: probability 0–1, n = 2; for CHI: Cell Health Index: probability (0–1) of high-risk class, n = 2; for Cell Health Toxcity Profile CC (DyeCycle Violet) / Cell Health Toxcity Profile CM (Cell morphology) / Cell Health Toxcity Profile CMI (Cell membrane integrity) / Cell Health Toxcity Profile GSH (Glutathione) / Cell Health Toxcity Profile MMP (Mitochondrial membrane depolarization) / Cell Health Toxcity Profile NMI1 (Nuclear membrane integrity 1) / Cell Health Toxcity Profile NMI2 (Nuclear membrane integrity 2) / Cell Health Toxcity Profile ROS (Reactive superoxide species) / Cell Health Toxcity Profile CHI: SYSTEMETRIC Cell Health Screen, assay n=2; for Cell Health Toxcity Profile CHI: classifier output
Procedure, shortened: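 HL60 cells (100,000 per well) exposed 4 h at 37 °C, 5% CO2 to 10-step 3× dilutions (5 nM–100 µM), in duplicate. Cells then stained with mitochondrial and cell-stress reporter dyes and read by ungated flow cytometry over twelve parameters. Cell Health Index and eight endpoint scores come from an ML classifier trained on 300 high/low-risk compounds.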

[4] = system: UM-Chor1 patient-derived chordoma cell line; assay: Cell viability assay (alamarBlue, 72 h), UM-Chor1; assay type: cell-based, human; settings: Homo sapiens, n = 4, 72 h
Method: as §1, §2

[5] = system: WS1 human fibroblast cell line; assay: Cell viability assay, WS1 toxicity control; assay type: cell-based; settings: Homo sapiens, Fibroblast, n = 4, nonspecific toxicity control
Method: as §2

[6] = Homo sapiens, UCH1, n = 4, 72 h
[7] = Homo sapiens, UCH2, n = 4, 72 h

SMILES	CC: Cell Cycle score (HL60 cells)	CM: Cell morphology score (HL60 cells)	CMI: Cell membrane integrity score (HL60 cells)	GSH: Glutathione score (HL60 cells)	MMP: Mitochondrial membrane depolarization score (HL60 cells)	NMI1: Nuclear membrane integrity 1 score (HL60 cells)	NMI2: Nuclear membrane integrity 2 score (HL60 cells)	ROS: Reactive superoxide species score (HL60 cells)	CHI: Cell Health Index (HL60 cells)	Cell Health Toxcity Profile CC (DyeCycle Violet) (HL60 cells)	Cell Health Toxcity Profile CM (Cell morphology) (HL60 cells)	Cell Health Toxcity Profile CMI (Cell membrane integrity) (HL60 cells)	Cell Health Toxcity Profile GSH (Glutathione) (HL60 cells)	Cell Health Toxcity Profile MMP (Mitochondrial membrane depolarization) (HL60 cells)	Cell Health Toxcity Profile NMI1 (Nuclear membrane integrity 1) (HL60 cells)	Cell Health Toxcity Profile NMI2 (Nuclear membrane integrity 2) (HL60 cells)	Cell Health Toxcity Profile ROS (Reactive superoxide species) (HL60 cells)	Cell Health Toxcity Profile CHI (HL60 cells)	IC50 (U-CH1 chordoma cell line; n = 4, 72 h) [µM]	IC50 (U-CH2 chordoma cell line; n = 4, 72 h) [µM]	other results
C#Cc1cccc(Nc2c(C#N)cnc3ccc(I)cc23)c1 [Compound 28, 4-((3-ethynylphenyl)amino)-6-iodoquinoline-3-carbonitrile]	0.91	0.88	1.00	0.93	0.99	0.74	0.81	0.89	0.70	0.91	0.88	1.00	0.93	0.99	0.74	0.81	0.89	0.70			IC50 (U-CH1 chordoma cell line; [6]): 8.7 µM; IC50 [1]: 8.4 µM; IC50 [2]: > 100 µM; IC50 (U-CH2 chordoma cell line; [7]): 14 µM; IC50 (EGFR): 2.5 µM; IC50 [3]: 7.7 µM; IC50 [4]: 6.9 µM
C#Cc1cccc(Nc2c(C#N)cnc3cc(OC)c(OC)cc23)c1 [Compound 22, 4-((3-ethynylphenyl)amino)-6,7-dimethoxyquinoline-3-carbonitrile]										0.33	0.35	0.77	0.071	0.39	0.67	0.29	0.81	0.40			IC50 (U-CH1 chordoma cell line; [6]): 4.1 µM; IC50 (U-CH2 chordoma cell line; [7]): 36 µM
C#Cc1cccc(Nc2c(C#N)cnc3ccc(OC)cc23)c1 [Compound 23]										0.74	0.020	0.0039	0.0085	0.28	0.30	0.11	0.056	0.26	20	> 100	
C#Cc1cccc(Nc2ncnc3cc(OCCOC)c(OCCOC)cc23)c1 [Erlotinib, reference compound]		0.77	0.50 and 0.74	0.63 and 0.81																	IC50 [1]: > 100 µM; IC50 [2]: 95 µM; IC50 [5]: 19 µM; IC50 [3]: 68 µM; IC50 [4]: 19 µM
C#Cc1cccc(Nc2ncnc3cc(F)c(F)cc23)c1 [Compound 6, N-(3-ethynylphenyl)-6,7-difluoroquinazolin-4-amine]																					IC50 (EGFR): 12 µM
C#Cc1cccc(Nc2c(C#N)cnc3ccc(Br)cc23)c1 [Compound 27]										0.98	1.00	1.00	0.98	0.96	0.32	0.98	1.00	0.75	22	30	
C#Cc1cccc(Nc2ncnc3ccc(C)cc23)c1 [Compound 4]	0.65	0.0051	0.21	0.12	0.49	0.059	0.17	0.20	0.31										15	> 100	
C#Cc1cccc(Nc2ncnc3ccc(C(F)(F)F)cc23)c1 [Compound 10]	0.59	0.058	0.045	0.004	0.74	0.21	0.19	0.77	0.40										21	42	
C#Cc1cccc(Nc2c(C#N)cnc3ccc(F)cc23)c1 [Compound 25]										0.76	0.98	0.99	0.97	0.96	0.71	0.72	0.93	0.69	23	> 100	
C#Cc1cccc(Nc2ncnc3ccc(F)cc23)c1 [Compound 5]	0.34	0.0041	0.091	0.087	0.26	0.082	0.11	0.34	0.26										19	> 100	
